According to US10702507B2, “Endoparasite control agent” (THE UNIVERSITY OF TOKYO, priority 2014, dated 2020):

Tested on: 1st-stage larvae of Haemonchus contortus
Experiment: Test for effect on motion of larvae of Haemonchus nematode
Conditions: 20 larvae per well, 27° C./95% RH for 4 days, corrected against DMSO negative control, duplicate
Procedure: Test for Effect on Motion of Larvae of Haemonchus Nematode (Haemonchus contortus) The compound of the present invention was prepared as solutions in 100% DMSO at the final concentrations of 50 ppm, 5 ppm, 0.5 ppm, 0.05 ppm and 0.005 ppm. DMSO stands for dimethyl sulfoxide. A larval suspension containing 1st-stage larvae of Haemonchus contortus harvested by the Baermann technique (for example, see K. Nakazono et al., “Inclination of Baermann funnel wall and efficiency of nematode extraction” Proc. Assoc. Pl. Prot. Kyushu 33: 126-130 (1987)) was placed at a density of 20 larvae per well in a test plate, and 0.5 μL/well of the test solution containing the compound of the present invention diluted to a predetermined concentration was added to the test plate. The plate was kept under the conditions of 27° C./95% RH for 4 days. In the test, ivermectin was used for the positive control and DMSO was used for the negative control. The motor ability of the larvae was examined with an automatic analyzer equipped with an LCD camera. The inhibitory effect on the motion of the larvae in each treatment plot was corrected based on the inhibitory effect in the plot treated with DMSO only for the negative control. The EC50 value was calculated from the data on the corrected inhibitory effect on the motion of the larvae, and graded according to the criteria shown below. The test was conducted in duplicate per plot.

Row | SMILES | EC50 value of corrected inhibitory effect on the motion of the larvae, graded
1 | COc1ccc(-c2ccc(CCNC(=O)c3ccccc3C(F)(F)F)c(Cl)c2)cc1 [Compound 1-53] | C or higher
2 | O=C(NCCc1ccc(-c2ccccc2)cc1Cl)c1ccccc1C(F)(F)F [Compound 1-54] | C or higher
3 | O=C(NCCc1ccc(-c2ccncc2)cc1Cl)c1ccccc1C(F)(F)F [Compound 1-55] | C or higher
4 | O=C(NCCc1ccc(-c2cccnc2)cc1Cl)c1ccccc1C(F)(F)F [Compound 1-56] | C or higher
5 | COC(CNC(=O)c1ccccc1C(F)(F)F)c1ccc(Oc2nc3ccccc3s2)cc1Cl (stereo not drawn) [Compound 1-63] | C or higher
6 | COC(CNC(=O)c1ccccc1C(F)(F)F)c1ccc(Oc2ccc(C(F)(F)F)cc2)cc1Cl (stereo not drawn) [Compound 1-65] | C or higher
7 | COC(CNC(=O)c1ccccc1C(F)(F)F)c1ccc(Oc2cccnc2)cc1Cl (stereo not drawn) [Compound 1-67] | C or higher
8 | O=C(NCCc1ncc(-c2ccccc2)cc1Cl)c1ccccc1C(F)(F)F [Compound 2-1] | C or higher
9 | O=C(NCCc1ncc(-c2ccc(C(F)(F)F)cc2)cc1Cl)c1ccccc1C(F)(F)F [Compound 2-2] | C or higher
10 | O=C(NCCc1ncc(-c2cccc(C(F)(F)F)c2)cc1Cl)c1ccccc1C(F)(F)F [Compound 2-3] | C or higher
11 | O=C(NCCc1ncc(-c2cc(F)cc(F)c2)cc1Cl)c1ccccc1C(F)(F)F [Compound 2-4] | C or higher
12 | COc1ccc(-c2cnc(CCNC(=O)c3ccccc3C(F)(F)F)c(Cl)c2)cc1 [Compound 2-5] | C or higher
